Results published in publication PMC6278857, “Anaerobic Degradation of the Plant Sugar Sulfoquinovose Concomitant With H2S Production: Escherichia coli K-12 and Desulfovibrio sp. Strain DF1 as Co-culture Model” (Frontiers in Microbiology, 2018).

Tested on: T1, DhpA (DHPS dehydrogenase)
T1 construct: full-length gene, N-terminal His-tag (pET28a), from E. coli Rosetta 2 DE3
Experiment: initial rate of NADH formation at […] nm
Assay type: biochemical, Desulfovibrio sp. DF1
Conditions: 10 mM NAD+, 50 mM Tris-HCl, pH 9.5; racemic substrate; read-out: Kmapp

Km: 36 ± 4 µM
Structure (SMILES): O=S(=O)(O)CC(O)CO (racemic) [DHPS]
